Source: ChEMBL document CHEMBL4507256 (2021)

Assays:
[1] = system: Tyrosine-protein kinase ABL1 (Homo sapiens), P00519 [H396P]; conditions: Compound concentration 1000.0 nM
[2] = molecular target: Inhibitor of nuclear factor kappa-B kinase subunit alpha (Homo sapiens) (UniProt O15111); conditions: Compound concentration 1000.0 nM
[3] = molecular target: cAMP-dependent protein kinase catalytic subunit PRKX (Homo sapiens) (UniProt P51817); conditions: Compound concentration 1000.0 nM
[4] = system: Receptor-type tyrosine-protein kinase FLT3 (Homo sapiens), P36888 [D835V]; conditions: Compound concentration 1000.0 nM
[5] = system: Mast/stem cell growth factor receptor Kit (Homo sapiens), P10721 [V559D]; conditions: Compound concentration 1000.0 nM
[6] = molecular target: Histamine H4 receptor (Homo sapiens) (UniProt Q9H3N8); conditions: Compound concentration 10.0 uM
[7] = molecular target: 5'-AMP-activated protein kinase catalytic subunit alpha-1 (Homo sapiens) (UniProt Q13131); conditions: Compound concentration 1000.0 nM
[8] = molecular target: Transient receptor potential cation channel subfamily M member 6 (Homo sapiens) (UniProt Q9BX84); conditions: Compound concentration 1000.0 nM
[9] = molecular target: Mast/stem cell growth factor receptor Kit (Homo sapiens) (UniProt P10721); conditions: Compound concentration 1000.0 nM
[10] = molecular target: Tyrosine-protein kinase Blk (Homo sapiens) (UniProt P51451); conditions: Compound concentration 1000.0 nM
[11] = molecular target: Phosphatidylinositol 4,5-bisphosphate 3-kinase catalytic subunit alpha isoform (Homo sapiens) (UniProt P42336); conditions: Compound concentration 1000.0 nM
[12] = molecular target: Bone morphogenetic protein receptor type-1A (Homo sapiens) (UniProt P36894); conditions: Compound concentration 1000.0 nM
[13] = molecular target: Fibroblast growth factor receptor 1 (Homo sapiens) (UniProt P11362); conditions: Compound concentration 1000.0 nM
[14] = molecular target: Serine/threonine-protein kinase STK11 (Homo sapiens) (UniProt Q15831); conditions: Compound concentration 1000.0 nM
[15] = molecular target: Interferon-induced, double-stranded RNA-activated protein kinase (Homo sapiens) (UniProt P19525); conditions: Compound concentration 1000.0 nM
[16] = system: Phosphatidylinositol 4,5-bisphosphate 3-kinase catalytic subunit alpha isoform (Homo sapiens), P42336 [H1047Y]; conditions: Compound concentration 1000.0 nM
[17] = system: Serine/threonine-protein kinase B-raf (Homo sapiens), P15056 [V600E]; conditions: Compound concentration 1000.0 nM
[18] = molecular target: Ephrin type-B receptor 4 (Homo sapiens) (UniProt P54760); conditions: Compound concentration 1000.0 nM
[19] = molecular target: Phosphatidylinositol 4-kinase beta (Homo sapiens) (UniProt Q9UBF8); conditions: Compound concentration 1000.0 nM
[20] = molecular target: Dual specificity tyrosine-phosphorylation-regulated kinase 1A (Homo sapiens) (UniProt Q13627); conditions: Compound concentration 1000.0 nM
[21] = molecular target: Mitogen-activated protein kinase kinase kinase 7 (Homo sapiens) (UniProt O43318); conditions: Compound concentration 1000.0 nM
[22] = molecular target: Serine/threonine-protein kinase 25 (Homo sapiens) (UniProt O00506); conditions: Compound concentration 1000.0 nM
[23] = molecular target: Tyrosine-protein kinase ABL2 (Homo sapiens) (UniProt P42684); conditions: Compound concentration 1000.0 nM
[24] = molecular target: Serine/threonine-protein kinase 17B (Homo sapiens) (UniProt O94768); conditions: Compound concentration 1000.0 nM
[25] = molecular target: Protein kinase C epsilon type (Homo sapiens) (UniProt Q02156); conditions: Compound concentration 1000.0 nM
[26] = system: Phosphatidylinositol 4,5-bisphosphate 3-kinase catalytic subunit alpha isoform (Homo sapiens), P42336 [Q546K]; conditions: Compound concentration 1000.0 nM
[27] = molecular target: Non-receptor tyrosine-protein kinase TYK2 (Homo sapiens) (UniProt P29597); conditions: Compound concentration 1000.0 nM
[28] = molecular target: Casein kinase I isoform delta (Homo sapiens) (UniProt P48730); conditions: Compound concentration 1000.0 nM
[29] = molecular target: Protein kinase C eta type (Homo sapiens) (UniProt P24723); conditions: Compound concentration 1000.0 nM
[30] = molecular target: Uncharacterized serine/threonine-protein kinase SBK3 (Homo sapiens) (UniProt P0C264); conditions: Compound concentration 1000.0 nM
[31] = molecular target: Insulin-like growth factor 1 receptor (Homo sapiens) (UniProt P08069); conditions: Compound concentration 1000.0 nM
[32] = molecular target: Ephrin type-A receptor 7 (Homo sapiens) (UniProt Q15375); conditions: Compound concentration 1000.0 nM
[33] = molecular target: Casein kinase I isoform gamma-2 (Homo sapiens) (UniProt P78368); conditions: Compound concentration 1000.0 nM
[34] = molecular target: Cyclin-dependent kinase 13 (Homo sapiens) (UniProt Q14004); conditions: Compound concentration 1000.0 nM
[35] = molecular target: Inhibitor of nuclear factor kappa-B kinase subunit epsilon (Homo sapiens) (UniProt Q14164); conditions: Compound concentration 1000.0 nM
[36] = molecular target: 5-hydroxytryptamine receptor 1E (Homo sapiens) (UniProt P28566); conditions: Compound concentration 10.0 uM
[37] = molecular target: Eukaryotic translation initiation factor 2-alpha kinase 1 (Homo sapiens) (UniProt Q9BQI3); conditions: Compound concentration 1000.0 nM
[38] = molecular target: Focal adhesion kinase 1 (Homo sapiens) (UniProt Q05397); conditions: Compound concentration 1000.0 nM
[39] = molecular target: STE20-like serine/threonine-protein kinase (Homo sapiens) (UniProt Q9H2G2); conditions: Compound concentration 1000.0 nM

Sequence of Mast/stem cell growth factor receptor Kit (Homo sapiens), P10721 [V559D] (P10721 whole entry V559D): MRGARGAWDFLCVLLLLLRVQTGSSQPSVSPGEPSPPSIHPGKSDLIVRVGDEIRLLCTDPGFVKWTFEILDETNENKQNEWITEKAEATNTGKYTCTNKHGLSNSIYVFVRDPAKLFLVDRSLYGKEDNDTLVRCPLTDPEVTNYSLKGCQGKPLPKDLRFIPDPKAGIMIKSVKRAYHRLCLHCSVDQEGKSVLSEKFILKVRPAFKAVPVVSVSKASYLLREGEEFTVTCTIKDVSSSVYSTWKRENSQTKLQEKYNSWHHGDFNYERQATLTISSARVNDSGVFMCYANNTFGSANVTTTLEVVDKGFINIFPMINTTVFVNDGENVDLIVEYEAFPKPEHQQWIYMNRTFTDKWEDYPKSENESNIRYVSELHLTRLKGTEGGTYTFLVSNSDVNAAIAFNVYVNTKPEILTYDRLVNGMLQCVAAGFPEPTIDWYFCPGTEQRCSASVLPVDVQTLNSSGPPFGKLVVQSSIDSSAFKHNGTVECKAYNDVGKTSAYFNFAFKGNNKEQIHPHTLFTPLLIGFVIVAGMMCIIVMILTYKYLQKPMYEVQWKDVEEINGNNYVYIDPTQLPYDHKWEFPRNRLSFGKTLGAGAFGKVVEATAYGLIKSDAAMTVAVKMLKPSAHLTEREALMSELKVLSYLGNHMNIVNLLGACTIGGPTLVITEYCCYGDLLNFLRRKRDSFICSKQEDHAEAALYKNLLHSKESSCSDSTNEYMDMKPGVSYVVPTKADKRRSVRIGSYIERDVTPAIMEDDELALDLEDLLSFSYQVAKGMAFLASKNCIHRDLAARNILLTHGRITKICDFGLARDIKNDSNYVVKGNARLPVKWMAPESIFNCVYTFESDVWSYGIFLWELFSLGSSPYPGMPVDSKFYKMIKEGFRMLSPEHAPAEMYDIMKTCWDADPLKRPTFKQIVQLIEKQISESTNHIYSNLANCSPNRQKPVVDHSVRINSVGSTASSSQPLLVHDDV
Sequence of Non-receptor tyrosine-protein kinase TYK2 (Homo sapiens) (P29597 whole entry, canonical isoform): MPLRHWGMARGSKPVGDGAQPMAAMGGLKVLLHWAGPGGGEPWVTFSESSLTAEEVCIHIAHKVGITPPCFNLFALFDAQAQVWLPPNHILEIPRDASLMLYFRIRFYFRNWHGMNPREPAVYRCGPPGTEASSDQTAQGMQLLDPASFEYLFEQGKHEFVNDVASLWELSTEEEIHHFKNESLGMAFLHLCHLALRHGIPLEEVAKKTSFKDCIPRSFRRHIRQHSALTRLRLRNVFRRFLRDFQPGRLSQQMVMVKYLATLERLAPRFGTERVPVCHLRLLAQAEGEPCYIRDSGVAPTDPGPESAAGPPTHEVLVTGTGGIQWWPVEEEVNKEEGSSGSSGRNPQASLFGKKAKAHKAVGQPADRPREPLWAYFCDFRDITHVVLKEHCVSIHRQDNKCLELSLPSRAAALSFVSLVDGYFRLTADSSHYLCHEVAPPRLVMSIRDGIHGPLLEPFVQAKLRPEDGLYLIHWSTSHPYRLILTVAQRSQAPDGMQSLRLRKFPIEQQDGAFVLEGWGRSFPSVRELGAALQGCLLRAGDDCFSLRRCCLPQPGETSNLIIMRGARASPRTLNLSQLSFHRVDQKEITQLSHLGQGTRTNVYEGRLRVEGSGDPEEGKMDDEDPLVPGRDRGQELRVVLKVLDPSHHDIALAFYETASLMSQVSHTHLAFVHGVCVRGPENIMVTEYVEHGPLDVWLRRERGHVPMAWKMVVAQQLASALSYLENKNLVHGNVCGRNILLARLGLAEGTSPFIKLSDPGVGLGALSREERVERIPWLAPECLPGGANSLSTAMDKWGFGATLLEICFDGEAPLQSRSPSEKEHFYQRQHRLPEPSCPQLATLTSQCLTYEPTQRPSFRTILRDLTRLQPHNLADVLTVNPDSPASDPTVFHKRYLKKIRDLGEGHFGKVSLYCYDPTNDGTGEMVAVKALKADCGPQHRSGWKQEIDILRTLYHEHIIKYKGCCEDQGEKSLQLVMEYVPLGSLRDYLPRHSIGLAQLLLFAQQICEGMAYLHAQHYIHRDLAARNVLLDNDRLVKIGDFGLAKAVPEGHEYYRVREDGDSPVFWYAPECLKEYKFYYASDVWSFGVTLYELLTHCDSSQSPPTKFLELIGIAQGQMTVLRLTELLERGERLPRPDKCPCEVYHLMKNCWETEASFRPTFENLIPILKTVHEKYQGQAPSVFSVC
Sequence of Transient receptor potential cation channel subfamily M member 6 (Homo sapiens) (Q9BX84 whole entry): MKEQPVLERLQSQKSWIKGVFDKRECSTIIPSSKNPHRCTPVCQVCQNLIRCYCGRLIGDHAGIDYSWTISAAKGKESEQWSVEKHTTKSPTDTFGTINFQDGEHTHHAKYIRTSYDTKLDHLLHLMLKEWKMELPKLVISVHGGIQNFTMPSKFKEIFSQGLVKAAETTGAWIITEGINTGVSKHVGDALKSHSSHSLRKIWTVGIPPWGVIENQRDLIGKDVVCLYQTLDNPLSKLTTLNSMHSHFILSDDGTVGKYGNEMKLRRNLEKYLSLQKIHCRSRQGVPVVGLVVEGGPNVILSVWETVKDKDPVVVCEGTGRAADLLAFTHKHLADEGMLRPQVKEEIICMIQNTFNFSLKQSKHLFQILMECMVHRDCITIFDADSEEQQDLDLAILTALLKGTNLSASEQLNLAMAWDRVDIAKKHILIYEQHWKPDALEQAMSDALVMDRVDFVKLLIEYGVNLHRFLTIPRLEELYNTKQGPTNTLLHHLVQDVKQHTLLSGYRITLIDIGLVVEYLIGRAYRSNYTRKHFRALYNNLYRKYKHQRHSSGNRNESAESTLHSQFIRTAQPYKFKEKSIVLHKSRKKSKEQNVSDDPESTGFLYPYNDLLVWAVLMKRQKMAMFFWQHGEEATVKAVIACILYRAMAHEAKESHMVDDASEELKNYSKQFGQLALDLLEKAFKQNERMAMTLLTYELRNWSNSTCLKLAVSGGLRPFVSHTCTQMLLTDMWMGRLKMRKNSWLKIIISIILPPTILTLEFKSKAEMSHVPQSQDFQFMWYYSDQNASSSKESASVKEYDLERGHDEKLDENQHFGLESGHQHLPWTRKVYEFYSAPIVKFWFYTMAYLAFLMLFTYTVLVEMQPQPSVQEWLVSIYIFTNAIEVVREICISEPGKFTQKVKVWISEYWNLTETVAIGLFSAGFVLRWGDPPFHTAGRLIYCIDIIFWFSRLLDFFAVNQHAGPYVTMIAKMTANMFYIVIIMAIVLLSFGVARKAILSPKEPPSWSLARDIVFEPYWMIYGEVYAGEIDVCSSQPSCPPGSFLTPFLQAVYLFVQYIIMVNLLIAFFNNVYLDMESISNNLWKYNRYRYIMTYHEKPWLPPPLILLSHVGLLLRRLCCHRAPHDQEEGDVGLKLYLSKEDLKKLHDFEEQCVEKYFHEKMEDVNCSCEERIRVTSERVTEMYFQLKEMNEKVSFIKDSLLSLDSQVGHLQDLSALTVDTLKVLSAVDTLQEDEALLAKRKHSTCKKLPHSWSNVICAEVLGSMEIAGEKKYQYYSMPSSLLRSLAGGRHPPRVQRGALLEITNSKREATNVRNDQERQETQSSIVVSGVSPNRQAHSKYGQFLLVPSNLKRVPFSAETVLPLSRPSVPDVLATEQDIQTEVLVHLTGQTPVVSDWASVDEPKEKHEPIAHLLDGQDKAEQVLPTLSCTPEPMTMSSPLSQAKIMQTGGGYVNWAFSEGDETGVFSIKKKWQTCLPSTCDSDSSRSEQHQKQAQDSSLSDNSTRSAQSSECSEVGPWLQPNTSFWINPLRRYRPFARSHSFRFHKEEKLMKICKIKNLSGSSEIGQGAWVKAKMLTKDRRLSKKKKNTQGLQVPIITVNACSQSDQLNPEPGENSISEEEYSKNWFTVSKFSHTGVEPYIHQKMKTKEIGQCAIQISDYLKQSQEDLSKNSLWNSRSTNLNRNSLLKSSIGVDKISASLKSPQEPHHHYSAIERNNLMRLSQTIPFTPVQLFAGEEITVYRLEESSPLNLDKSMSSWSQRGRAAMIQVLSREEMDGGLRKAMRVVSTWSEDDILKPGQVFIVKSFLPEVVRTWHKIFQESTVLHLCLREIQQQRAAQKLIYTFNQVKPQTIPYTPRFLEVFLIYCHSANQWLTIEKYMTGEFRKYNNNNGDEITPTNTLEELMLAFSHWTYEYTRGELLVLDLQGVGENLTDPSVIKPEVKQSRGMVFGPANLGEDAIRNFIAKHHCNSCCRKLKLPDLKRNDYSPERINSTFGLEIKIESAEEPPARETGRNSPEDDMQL
Sequence of Fibroblast growth factor receptor 1 (Homo sapiens) (P11362 22-822 limits assumed): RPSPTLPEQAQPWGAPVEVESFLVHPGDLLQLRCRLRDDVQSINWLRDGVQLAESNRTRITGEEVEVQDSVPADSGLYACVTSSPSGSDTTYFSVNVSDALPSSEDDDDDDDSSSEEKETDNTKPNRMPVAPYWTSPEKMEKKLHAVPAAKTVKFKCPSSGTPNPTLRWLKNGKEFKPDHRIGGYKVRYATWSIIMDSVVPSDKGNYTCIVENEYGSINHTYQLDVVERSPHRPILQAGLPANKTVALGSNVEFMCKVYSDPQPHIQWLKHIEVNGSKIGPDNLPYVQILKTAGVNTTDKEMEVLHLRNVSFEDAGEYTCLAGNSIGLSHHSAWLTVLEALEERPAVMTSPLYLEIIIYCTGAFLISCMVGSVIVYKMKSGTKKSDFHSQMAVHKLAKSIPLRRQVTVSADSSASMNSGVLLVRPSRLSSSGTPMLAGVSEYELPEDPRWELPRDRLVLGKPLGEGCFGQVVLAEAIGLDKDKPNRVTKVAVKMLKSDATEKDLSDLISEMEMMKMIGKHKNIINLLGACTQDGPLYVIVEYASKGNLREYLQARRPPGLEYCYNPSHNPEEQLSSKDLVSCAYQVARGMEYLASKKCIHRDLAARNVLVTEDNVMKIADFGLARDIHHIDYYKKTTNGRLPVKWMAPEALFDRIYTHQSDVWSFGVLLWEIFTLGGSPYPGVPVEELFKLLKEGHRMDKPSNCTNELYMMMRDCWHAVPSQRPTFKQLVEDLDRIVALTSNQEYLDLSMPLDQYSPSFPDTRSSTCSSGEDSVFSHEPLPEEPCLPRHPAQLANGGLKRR
Sequence of Mast/stem cell growth factor receptor Kit (Homo sapiens) (P10721 whole entry): as the sequence (P10721 whole entry V559D) above, with D559V counted along it

SMILES | residual activity [1] [%] | residual activity [2] [%] | residual activity [3] [%] | residual activity [4] [%] | residual activity [5] [%] | inhibition [6] [%] | residual activity [7] [%] | residual activity [8] [%] | residual activity [9] [%] | residual activity [10] [%] | residual activity [11] [%] | residual activity [12] [%] | residual activity [13] [%] | residual activity [14] [%] | residual activity [15] [%] | residual activity [16] [%] | residual activity [17] [%] | residual activity [18] [%] | residual activity [19] [%] | residual activity [20] [%] | further results
CCC(=N\O)/C(C)=C/c1ccc(F)cc1 [A-079] | 72 | 67 | 96 | 100 | 100 | 9.43 | 99 | 64 | 80 | 87 | 100 | 86 | 100 | 100 | 100 | 82 | 77 | 73 | 50 | 91 | residual activity [21]: 81%; residual activity [22]: 86%; residual activity [23]: 82%; residual activity [24]: 74%; residual activity [25]: 76%; residual activity [26]: 91%; residual activity [27]: 72%; residual activity [28]: 81%; residual activity [29]: 100%; residual activity [30]: 100%; residual activity [31]: 79%; residual activity [32]: 86%; residual activity [33]: 87%; residual activity [34]: 95%; residual activity [35]: 94%; inhibition [36]: 6.66%; residual activity [37]: 100%; residual activity [38]: 82%; residual activity [39]: 91%
CCC(=N\O)/C(C)=C/c1ccc(F)c(C)c1 [A-226] | 100 | 95 | 94 | 100 | 100 | 10.8 | 73 | 100 | 100 | 91 | 100 | 100 | 57 | 100 | 100 | 100 | 100 | 100 | 100 | 100 | residual activity [21]: 99%; residual activity [22]: 100%; residual activity [23]: 92%; residual activity [24]: 100%; residual activity [25]: 62%; residual activity [26]: 46%; residual activity [27]: 100%; residual activity [28]: 92%; residual activity [29]: 68%; residual activity [30]: 100%; residual activity [31]: 100%; residual activity [32]: 92%; residual activity [33]: 100%; residual activity [34]: 100%; residual activity [35]: 100%; inhibition [36]: 4.47%; residual activity [37]: 100%; residual activity [38]: 100%; residual activity [39]: 93%
